Assay results: ChEMBL document CHEMBL3885861, “Open TG-GATES”

Species on record: Rattus norvegicus
Assay: Open TG-GATES - Regimen: Single
Type: toxicity, organism-based, Sprague-Dawley
Design: regimen Single, gender Male, age 6 weeks
Details: in vivo, po, route gavage; for APTT / Bas / Eos / Fbg / Hb / Ht / Lym / MCH / MCHC / MCV / Mono / Neu / PT / Plat / RBC / Ret / WBC: tissue Blood; for KIDNEY_L / KIDNEY_R / KIDNEY_TOTAL: tissue Kidney; for LIVER: tissue Liver; for ALP / ALT / AST / CRE / DBIL / GLC / IP / K / LDH / Na / PL / RALB / TBIL / TC / TP / gamma-GTP: tissue Plasma
[1] = 300 mg/kg, 3 h, dose level Middle
[2] = 300 mg/kg, 6 h, dose level Middle
[3] = 300 mg/kg, 9 h, dose level Middle
[4] = 300 mg/kg, 24 h, dose level Middle
[5] = 1000 mg/kg, 3 h, dose level High
[6] = 1000 mg/kg, 6 h, dose level High
[7] = 1000 mg/kg, 9 h, dose level High
[8] = 1000 mg/kg, 24 h, dose level High

SMILES: Clc1ccccc1CN1CCc2sccc2C1 [TICLOPIDINE]
- TERMINAL_BW [1]: 211.8 g
- APTT [1]: 19.5 s
- Bas [1]: 0%
- Eos [1]: 1%
- Fbg [1]: 220.8 mg/dL
- Hb [1]: 13.1 g/dL
- Ht [1]: 37.1%
- Lym [1]: 73.4%
- MCH [1]: 21.8 pg
- MCHC [1]: 35.3%
- MCV [1]: 61.6 fL
- Mono [1]: 2.8%
- Neu [1]: 21.6%
- PT [1]: 12.2 s
- Plat [1]: 124.1 x10_4/uL
- RBC [1]: 602.2 x10_4/ul
- Ret [1]: 8.4%
- WBC [1]: 73.9 x10_2/uL
- KIDNEY_L [1]: 0.9 g
- KIDNEY_R [1]: 1 g
- KIDNEY_TOTAL [1]: 1.9 g
- LIVER [1]: 9 g
- ALP [1]: 999 IU/L
- ALT [1]: 36.2 IU/L
- AST [1]: 74 IU/L
- CRE [1]: 0.4 mg/dL
- DBIL [1]: 0.078 mg/dL
- GLC [1]: 194.2 mg/dL
- IP [1]: 10.5 mg/dL
- K [1]: 3.7 meq/L
- LDH [1]: 161.4 IU/L
- Na [1]: 141 meq/L
- PL [1]: 129.2 mg/dL
- RALB [1]: 3.3 g/dL
- TBIL [1]: 0.1 mg/dL
- TC [1]: 72.6 mg/dL
- TP [1]: 5.4 g/dL
- gamma-GTP [1]: 0.8 IU/L
- TERMINAL_BW [2]: 209.7 g
- APTT [2]: 18.1 s
- Bas [2]: 0.2%
- Eos [2]: 0.8%
- Fbg [2]: 226.8 mg/dL
- Hb [2]: 13.5 g/dL
- Ht [2]: 39.1%
- Lym [2]: 77%
- MCH [2]: 21.1 pg
- MCHC [2]: 34.5%
- MCV [2]: 61.3 fL
- Mono [2]: 2.4%
- Neu [2]: 18.4%
- PT [2]: 12.1 s
- Plat [2]: 131 x10_4/uL
- RBC [2]: 637.6 x10_4/ul
- Ret [2]: 7.8%
- WBC [2]: 76.9 x10_2/uL
- KIDNEY_L [2]: 1 g
- KIDNEY_R [2]: 1 g
- KIDNEY_TOTAL [2]: 1.9 g
- LIVER [2]: 9.1 g
- ALP [2]: 909.6 IU/L
- ALT [2]: 34 IU/L
- AST [2]: 74.6 IU/L
- CRE [2]: 0.4 mg/dL
- DBIL [2]: 0.078 mg/dL
- GLC [2]: 192 mg/dL
- IP [2]: 10 mg/dL
- K [2]: 3.9 meq/L
- LDH [2]: 213 IU/L
- Na [2]: 141 meq/L
- PL [2]: 134 mg/dL
- RALB [2]: 3.4 g/dL
- TBIL [2]: 0.1 mg/dL
- TC [2]: 76.2 mg/dL
- TP [2]: 5.5 g/dL
- gamma-GTP [2]: 1.2 IU/L
- TERMINAL_BW [3]: 208.6 g
- APTT [3]: 18.8 s
- Bas [3]: 0.2%
- Eos [3]: 1%
- Fbg [3]: 226.8 mg/dL
- Hb [3]: 13.3 g/dL
- Ht [3]: 37.6%
- Lym [3]: 76%
- MCH [3]: 21.4 pg
- MCHC [3]: 35.3%
- MCV [3]: 60.7 fL
- Mono [3]: 2%
- Neu [3]: 20.2%
- PT [3]: 12.7 s
- Plat [3]: 132.7 x10_4/uL
- RBC [3]: 621.4 x10_4/ul
- Ret [3]: 7.2%
- WBC [3]: 64 x10_2/uL
- KIDNEY_L [3]: 0.9 g
- KIDNEY_R [3]: 1 g
- KIDNEY_TOTAL [3]: 1.9 g
- LIVER [3]: 8.3 g
- ALP [3]: 859.4 IU/L
- ALT [3]: 31.2 IU/L
- AST [3]: 65.4 IU/L
- CRE [3]: 0.4 mg/dL
- DBIL [3]: 0.072 mg/dL
- GLC [3]: 197 mg/dL
- IP [3]: 9.8 mg/dL
- K [3]: 3.9 meq/L
- LDH [3]: 129.6 IU/L
- Na [3]: 142 meq/L
- PL [3]: 129 mg/dL
- RALB [3]: 3.3 g/dL
- TBIL [3]: 0.1 mg/dL
- TC [3]: 69.8 mg/dL
- TP [3]: 5.5 g/dL
- gamma-GTP [3]: 1.2 IU/L
- TERMINAL_BW [4]: 212.9 g
- APTT [4]: 19.8 s
- Bas [4]: 0.4%
- Eos [4]: 1%
- Fbg [4]: 228.2 mg/dL
- Hb [4]: 14.1 g/dL
- Ht [4]: 39.5%
- Lym [4]: 80.8%
- MCH [4]: 22.1 pg
- MCHC [4]: 35.6%
- MCV [4]: 62.2 fL
- Mono [4]: 2.4%
- Neu [4]: 14.6%
- PT [4]: 12.1 s
- Plat [4]: 128.1 x10_4/uL
- RBC [4]: 635.4 x10_4/ul
- Ret [4]: 6.1%
- WBC [4]: 76.1 x10_2/uL
- KIDNEY_L [4]: 1 g
- KIDNEY_R [4]: 1 g
- KIDNEY_TOTAL [4]: 2 g
- LIVER [4]: 9.5 g
- ALP [4]: 1118.8 IU/L
- ALT [4]: 35.2 IU/L
- AST [4]: 66.6 IU/L
- CRE [4]: 0.4 mg/dL
- DBIL [4]: 0.078 mg/dL
- GLC [4]: 182.2 mg/dL
- IP [4]: 8.7 mg/dL
- K [4]: 4 meq/L
- LDH [4]: 120 IU/L
- Na [4]: 142 meq/L
- PL [4]: 146.6 mg/dL
- RALB [4]: 3.5 g/dL
- TBIL [4]: 0.1 mg/dL
- TC [4]: 83.4 mg/dL
- TP [4]: 5.6 g/dL
- gamma-GTP [4]: 1 IU/L
- TERMINAL_BW [5]: 212.3 g
- APTT [5]: 17.9 s
- Bas [5]: 0.2%
- Eos [5]: 1%
- Fbg [5]: 220.2 mg/dL
- Hb [5]: 13 g/dL
- Ht [5]: 36.9%
- Lym [5]: 73.2%
- MCH [5]: 21.4 pg
- MCHC [5]: 35.3%
- MCV [5]: 60.7 fL
- Mono [5]: 2.8%
- Neu [5]: 22.4%
- PT [5]: 11.8 s
- Plat [5]: 128.4 x10_4/uL
- RBC [5]: 609.4 x10_4/ul
- Ret [5]: 8.6%
- WBC [5]: 61.1 x10_2/uL
- KIDNEY_L [5]: 0.9 g
- KIDNEY_R [5]: 0.9 g
- KIDNEY_TOTAL [5]: 1.9 g
- LIVER [5]: 9 g
- ALP [5]: 991.8 IU/L
- ALT [5]: 36 IU/L
- AST [5]: 71.4 IU/L
- CRE [5]: 0.4 mg/dL
- DBIL [5]: 0.076 mg/dL
- GLC [5]: 196.4 mg/dL
- IP [5]: 10.7 mg/dL
- K [5]: 3.8 meq/L
- LDH [5]: 147.4 IU/L
- Na [5]: 140.4 meq/L
- PL [5]: 122 mg/dL
- RALB [5]: 3.3 g/dL
- TBIL [5]: 0.1 mg/dL
- TC [5]: 69.8 mg/dL
- TP [5]: 5.5 g/dL
- gamma-GTP [5]: 0.8 IU/L
- TERMINAL_BW [6]: 211.9 g
- APTT [6]: 19.4 s
- Bas [6]: 0%
- Eos [6]: 1%
- Fbg [6]: 230.6 mg/dL
- Hb [6]: 13.5 g/dL
- Ht [6]: 38.4%
- Lym [6]: 71.8%
- MCH [6]: 21.6 pg
- MCHC [6]: 35.1%
- MCV [6]: 61.4 fL
- Mono [6]: 2%
- Neu [6]: 24.6%
- PT [6]: 12.2 s
- Plat [6]: 118.7 x10_4/uL
- RBC [6]: 625.2 x10_4/ul
- Ret [6]: 8.6%
- WBC [6]: 69.6 x10_2/uL
- KIDNEY_L [6]: 0.9 g
- KIDNEY_R [6]: 0.9 g
- KIDNEY_TOTAL [6]: 1.8 g
- LIVER [6]: 8.7 g
- ALP [6]: 863 IU/L
- ALT [6]: 31 IU/L
- AST [6]: 69 IU/L
- CRE [6]: 0.4 mg/dL
- DBIL [6]: 0.082 mg/dL
- GLC [6]: 190.8 mg/dL
- IP [6]: 9.5 mg/dL
- K [6]: 3.8 meq/L
- LDH [6]: 196.2 IU/L
- Na [6]: 141.8 meq/L
- PL [6]: 149.8 mg/dL
- RALB [6]: 3.4 g/dL
- TBIL [6]: 0.1 mg/dL
- TC [6]: 91 mg/dL
- TP [6]: 5.7 g/dL
- gamma-GTP [6]: 1 IU/L
- TERMINAL_BW [7]: 212.4 g
- APTT [7]: 18.1 s
- Bas [7]: 0.2%
- Eos [7]: 0.6%
- Fbg [7]: 228.8 mg/dL
- Hb [7]: 13.6 g/dL
- Ht [7]: 38.4%
- Lym [7]: 79.6%
- MCH [7]: 21.5 pg
- MCHC [7]: 35.4%
- MCV [7]: 60.9 fL
- Mono [7]: 2.2%
- Neu [7]: 16.4%
- PT [7]: 12.4 s
- Plat [7]: 132.4 x10_4/uL
- RBC [7]: 629.8 x10_4/ul
- Ret [7]: 7.3%
- WBC [7]: 61.3 x10_2/uL
- KIDNEY_L [7]: 1 g
- KIDNEY_R [7]: 0.9 g
- KIDNEY_TOTAL [7]: 1.9 g
- LIVER [7]: 8.8 g
- ALP [7]: 1127.2 IU/L
- ALT [7]: 25.6 IU/L
- AST [7]: 65.2 IU/L
- CRE [7]: 0.4 mg/dL
- DBIL [7]: 0.076 mg/dL
- GLC [7]: 201.4 mg/dL
- IP [7]: 10 mg/dL
- K [7]: 3.8 meq/L
- LDH [7]: 200.8 IU/L
- Na [7]: 142.4 meq/L
- PL [7]: 141.4 mg/dL
- RALB [7]: 3.6 g/dL
- TBIL [7]: 0.1 mg/dL
- TC [7]: 74.8 mg/dL
- TP [7]: 5.6 g/dL
- gamma-GTP [7]: 1 IU/L
- TERMINAL_BW [8]: 208.4 g
- APTT [8]: 22.1 s
- Bas [8]: 0.4%
- Eos [8]: 1.2%
- Fbg [8]: 209 mg/dL
- Hb [8]: 13.9 g/dL
- Ht [8]: 38.9%
- Lym [8]: 80.8%
- MCH [8]: 21.4 pg
- MCHC [8]: 35.7%
- MCV [8]: 59.9 fL
- Mono [8]: 1.8%
- Neu [8]: 15%
- PT [8]: 13.1 s
- Plat [8]: 129.7 x10_4/uL
- RBC [8]: 650 x10_4/ul
- Ret [8]: 5.9%
- WBC [8]: 63.6 x10_2/uL
- KIDNEY_L [8]: 1 g
- KIDNEY_R [8]: 0.9 g
- KIDNEY_TOTAL [8]: 1.9 g
- LIVER [8]: 9.6 g
- ALP [8]: 1071.8 IU/L
- ALT [8]: 27.8 IU/L
- AST [8]: 64.6 IU/L
- CRE [8]: 0.5 mg/dL
- DBIL [8]: 0.084 mg/dL
- GLC [8]: 196.4 mg/dL
- IP [8]: 8.8 mg/dL
- K [8]: 3.8 meq/L
- LDH [8]: 141 IU/L
- Na [8]: 142 meq/L
- PL [8]: 143 mg/dL
- RALB [8]: 3.6 g/dL
- TBIL [8]: 0.1 mg/dL
- TC [8]: 86 mg/dL
- TP [8]: 5.7 g/dL
- gamma-GTP [8]: 1.2 IU/L
